ChEMBL document CHEMBL1138728, “QSAR modelling of HIV-1 reverse transcriptase inhibition by benzoxazinones using a combination of P_VSA and pharmacophore feature descriptors” (Bioorg Med Chem Lett, 2004)
pIC50: −log10 of the molar value.

Biological target: Human immunodeficiency virus type 1 reverse transcriptase (Human immunodeficiency virus 1, UniProt Q72547)
Test: Inhibitory activity against HIV-1 reverse transcriptase

CC(=O)Nc1ccc2c(c1)C(C#CC(C)C)(C(F)(F)F)OC(=O)N2 (stereo unspecified) was tested, and the pIC50 was > 5.70.
